Assay results reported in patent US4126606A, “Physiologically active peptides and a process for preparation thereof” (Zaidan Hojin Biseibutsu Kagaku Kenkyu Kai, priority 1976, dated 1978).

Experiment: ID50 determination of amastatin preparations (inhibitory activity)
Format: biochemical
For amastatin A3, the ID50 was 1.0 µg/mL.
amastatin A2 dimethyl ester gave an ID50 of 17 µg/mL.
N-acetyl amastatin A2 showed an ID50 of 450 µg/mL.
In the case of amastatin B2, the ID50 is reported as 1.0 µg/mL.
“hydrochloric acid salt of amastatin A1 [HCl A1]” gave an ID50 of 0.75 µg/mL.
With amastatin RB1 the ID50 was 1.50 µg/mL.
In the case of amastatin A1, the ID50 is reported as 0.65 µg/mL.
For amastatin A2, the ID50 was 0.54 µg/mL.
